How the values were obtained:
[1] = tested on: murine skin contact delayed-type hypersensitivity (DTH) response; assay: Murine DTH model for dermatitis, ear swelling; type: in vivo, mice
Procedure: Certain compounds herein were also tested for their efficacies (of inhibiting Jak targets) in the T-cell driven murine delayed hypersensitivity test model. The murine skin contact delayed-type hypersensitivity (DTH) response is considered to be a valid model of clinical contact dermatitis, and other T-lymphocyte mediated immune disorders of the skin, such as psoriasis (Immunol Today. 1998 January; 19(1):37-44). Murine DTH shares multiple characteristics with psoriasis, including the immune infiltrate, the accompanying increase in inflammatory cytokines, and keratinocyte hyperproliferation. Furthermore, many classes of agents that are efficacious in treating psoriasis in the clinic are also effective inhibitors of the DTH response in mice (Agents Actions. 1993 January; 38(1-2):116-21).
Test compound 3-{(3R,4R)-4-methyl-3-[methyl-(7H-pyrrolo[2,3-d]pyrimidin-4-yl)amino]-piperidin-1-yl}-3-oxo-propionitrile (see, e.g., WO 01/42246, WO 02/00661, or WO 03/48162) was administered continuously using mini-osmotic pumps to deliver the compound at 150 mg/kg/d. The inflammatory response was monitored by measuring the ear thickness prior to and after immune challenge. Differences in ear thickness were calculated for each mouse and then averaged for the group. Comparisons were made between vehicle and the treated groups in the context of the negative controls (challenged without sensitization) and therapeutic positive control mice (treated with dexamethasone or other efficacious agent).
A further murine DTH experiment was conducted by treating mice with 3-{(3R,4R)-4-methyl-3-[methyl-(7H-pyrrolo[2,3-d]pyrimidin-4-yl)amino]-piperidin-1-yl}-3-oxo-propionitrile either systemically or topically (3%, BID) after the sensitization phase was complete.

STAT3 = assay: Immunohistochemistry of ear sections in murine DTH model; type: in vivo, mice; conditions: after the sensitization phase
Procedure: To determine if topical administration of the test compound was sufficient to inhibit activation of the Jak-STAT pathway, immunohistochemistry was carried out on fixed tissues.

[2] = tested on: myeloid dendritic cells (DCs); conditions: CD40-induced maturation of myeloid DCs; cited from earlier work
[3] = tested on: NOD mouse model of autoimmune type 1 diabetes; conditions: cited from earlier work
[4] = tested on: IL-6-dependent MM cell lines; conditions: cited from earlier work
[5] = systemic, continuous by mini-osmotic pumps, 150 mg/kg/d

C[C@@H]1CCN(C(=O)CC#N)C[C@@H]1N(C)c1ncnc2[nH]ccc12 [3-{(3R,4R)-4-methyl-3-[methyl-(7H-pyrrolo[2,3-d]pyrimidin-4-yl)amino]-piperidin-1-yl}-3-oxo-propionitrile]
inhibition of ear swelling ([1]; systemic administration during the challenge phase, after sensitization phase complete (FIG. 1)): > 50%
histological analysis of hematoxolyin and eosin stained tissue sections [1, 5]: near complete inhibition of ear swelling
inhibition of ear swelling [1, 5]: 95%
inhibition of ear swelling ([1]; topical administration (3%, BID) during the challenge phase, after sensitization phase complete (FIG. 1)): > 50%
number of infiltrating cells (STAT3; systemic administration): visibly reduced
phosphorylation of STAT3 in all cell types (STAT3; systemic administration): inhibited
number of infiltrating cells (STAT3; topical administration): visibly reduced
phosphorylation of STAT3 in all cell types (STAT3; topical administration): inhibited

COc1cc2ncnc(Nc3ccc(O)c(Br)c3)c2cc1OC [WHI-P-154]
CD40-induced JAK3 activity, costimulatory molecule expression, IL-12 production, allogeneic stimulatory capacity [2]: prevented these effects

COc1cc2ncnc(Nc3ccc(O)cc3)c2cc1OC [JANEX-1]
onset of diabetes [3]: delayed the onset of diabetes

N#C/C(=C\c1ccc(O)c(O)c1)C(=O)NCc1ccccc1 [tyrphostin AG490]
JAK2 kinase activity and ERK2 and STAT3 phosphorylation [4]: inhibited
apoptosis [4]: induced
cell proliferation [4]: suppressed

— patent US9879010B2, “Pyrrolo[2,3-b]pyridin-4-yl-amines and pyrrolo[2,3-b] pyrimidin-5-yl-amines as Janus kinase inhibitors” (Incyte Corporation, priority 2004, dated 2018)
